Among the data in ChEMBL document CHEMBL1131671, “6-(1-Hydroxyalkyl)penam sulfone derivatives as inhibitors of class A and class C beta-lactamases I” (Bioorg Med Chem Lett, 1999) are IC50, ED50 and MIC values, retold here.

SMILES strings stand for the structures. ≈ marks a conversion by molar mass, not a printed value. Bounds are passed on as bounds.

One test concerns the target Beta-lactamase (Escherichia coli K-12, UniProt P00811). The experiment in a line: Inhibitory activity against AmpC (class C) beta-lactamase.
Another test concerns the target Beta-lactamase TEM (Escherichia coli, UniProt P62593). The experiment in a line: Inhibitory activity against TEM-1 (class A) beta-lactamase.
Test [1] has as its system Mus musculus. The experiment in a line: In vivo inhibitory activity against Escherichia coli in mice. In kind it is functional.
Another test deals with Serratia marcescens. The experiment in a line: In vitro inhibitory activity against Serratia marcescens. In kind it is functional.
Another test has as its system Escherichia coli. The test can be described thus: In vitro inhibitory activity against Escherichia coli. In kind it is functional.
Test [2] has as its system Mus musculus. The test can be described thus: In vivo inhibitory activity against Serratia marcescens in mice. In kind it is functional.

As usually defined, the IC50 is the concentration that inhibits the measured activity by half. Read a low IC50 as higher potency. In general, ED50 refers to the dose at which the effect has come halfway, by size or by number of responders. In general, MIC refers to the lowest concentration found to suppress growth.

Sequence of Beta-lactamase (P00811 whole entry): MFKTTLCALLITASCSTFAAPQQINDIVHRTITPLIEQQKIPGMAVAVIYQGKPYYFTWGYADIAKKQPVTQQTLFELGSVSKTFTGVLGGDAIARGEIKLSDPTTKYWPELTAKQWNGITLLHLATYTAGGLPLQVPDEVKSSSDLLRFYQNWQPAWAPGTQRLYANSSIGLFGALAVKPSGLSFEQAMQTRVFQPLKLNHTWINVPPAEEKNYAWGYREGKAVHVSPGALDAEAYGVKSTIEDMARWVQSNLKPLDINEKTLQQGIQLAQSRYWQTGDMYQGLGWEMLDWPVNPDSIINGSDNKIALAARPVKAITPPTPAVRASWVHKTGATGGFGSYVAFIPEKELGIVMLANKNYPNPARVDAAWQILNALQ
Sequence of Beta-lactamase TEM (P62593 whole entry): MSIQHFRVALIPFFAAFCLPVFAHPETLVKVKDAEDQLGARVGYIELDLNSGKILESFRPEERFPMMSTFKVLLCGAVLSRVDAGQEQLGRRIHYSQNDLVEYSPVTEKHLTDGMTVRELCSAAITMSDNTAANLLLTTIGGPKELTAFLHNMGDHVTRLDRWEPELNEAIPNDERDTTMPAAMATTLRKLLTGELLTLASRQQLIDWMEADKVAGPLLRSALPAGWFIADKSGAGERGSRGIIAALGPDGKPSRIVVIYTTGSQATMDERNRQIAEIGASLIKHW

In the case of `C[C@H](O)[C@H]1C(=O)N2[C@@H](C(=O)O)C(C)(C)S(=O)(=O)[C@H]12`, the IC50 on Beta-lactamase is 1.6 µM; on Beta-lactamase TEM, over 334 µM.
Turning to `CC1(C)S[C@@H]2[C@@H](CO)C(=O)N2[C@H]1C(=O)O`, the IC50 at Beta-lactamase came out at 220 µM; at Beta-lactamase TEM, 59 µM.
Take `C[C@]1(Cn2ccnn2)[C@H](C(=O)[O-])N2C(=O)C[C@H]2S1(=O)=O.[Na+]` [TAZOBACTAM SODIUM]: the ED50 in the test with Mus musculus [1] came to 7.7 mg/kg; with Mus musculus [2], 144 mg/kg. In addition, the MIC with Serratia marcescens came out at 32 µg/mL; against Escherichia coli it was 2 µg/mL.
On to `CC(C)[C@H](NC[C@H]1OCC[C@H]1SC1=C(C(=O)O)N2C(=O)[C@H]([C@@H](C)O)C2[C@H]1C)C(=O)O` (stereo partly drawn), for which the IC50 against Beta-lactamase was found to be 0.068 µM; at Beta-lactamase TEM, 0.091 µM.
For the molecule `C[C@H](O)[C@@H]1C(=O)N2[C@@H](C(=O)O)C(C)(C)S(=O)(=O)[C@H]12`, the values for the IC50 against Beta-lactamase and against Beta-lactamase TEM were 0.12 µM and 204 µM, respectively.
For the molecule `CCN1CCN(C(=O)N[C@@H](C(=O)N[C@@H]2C(=O)N3[C@@H]2SC(C)(C)[C@@H]3C(=O)O)c2ccccc2)C(=O)C1=O` [PIPERACILLIN], the results for the ED50 with Mus musculus [1] and in the test with Mus musculus [2] were 256 mg/kg and 128 mg/kg, respectively. The figures for the MIC in the test on Serratia marcescens and in the test with Escherichia coli were 32 µg/mL (≈ 61.8 µM) and over 64 µg/mL, respectively.
For `CC1(C)[C@H](C(=O)O)N2C(=O)[C@H](CO)[C@H]2S1(=O)=O`, the IC50 on Beta-lactamase turned out to be 5.8 µM. This counts as single-digit micromolar.
On to `CC1(C)S[C@@H]2[C@H](CO)C(=O)N2[C@H]1C(=O)O`, for which the IC50 was determined as 65.9 µM on Beta-lactamase and 31 µM against Beta-lactamase TEM.
The molecule `CC1(C)[C@H](C(=O)O)N2C(=O)[C@@H](CO)[C@H]2S1(=O)=O` had an IC50 at Beta-lactamase of 1.16 µM. Also, the ED50 was found to be 8 mg/kg in the test with Mus musculus [1] and 30 mg/kg with Mus musculus [2]. The MIC came to 8 µg/mL (≈ 30.4 µM) in the test on Serratia marcescens and 4 µg/mL (≈ 15.2 µM) against Escherichia coli.
Take `C[C@@H](O)[C@H]1C(=O)N2[C@@H](C(=O)O)C(C)(C)S(=O)(=O)[C@H]12`: the IC50 on Beta-lactamase was determined as 10.2 µM; at Beta-lactamase TEM, 47.9 µM.
For the molecule `C[C@@H](O)[C@H]1C(=O)N2C(C(=O)O)=C(S[C@@H]3CCO[C@@H]3CN)[C@H](C)[C@H]12`, the IC50 against Beta-lactamase came to 0.18 µM; against Beta-lactamase TEM, 0.035 µM.
